In patent publication US11744844B2, “Selective estrogen receptor degraders” (Eli Lilly and Company, priority 2021, dated 2023):
Where a name gives a salt, the structure may show the parent alone.

Molecular target: T1, ERα (Homo sapiens, UniProt P03372)
T1 construct: measure the degradation of ERα by a test compound in an ERα positive breast cancer cell line such as MCF7; host or cells: MCF7
T1 sequence (P03372 1-595): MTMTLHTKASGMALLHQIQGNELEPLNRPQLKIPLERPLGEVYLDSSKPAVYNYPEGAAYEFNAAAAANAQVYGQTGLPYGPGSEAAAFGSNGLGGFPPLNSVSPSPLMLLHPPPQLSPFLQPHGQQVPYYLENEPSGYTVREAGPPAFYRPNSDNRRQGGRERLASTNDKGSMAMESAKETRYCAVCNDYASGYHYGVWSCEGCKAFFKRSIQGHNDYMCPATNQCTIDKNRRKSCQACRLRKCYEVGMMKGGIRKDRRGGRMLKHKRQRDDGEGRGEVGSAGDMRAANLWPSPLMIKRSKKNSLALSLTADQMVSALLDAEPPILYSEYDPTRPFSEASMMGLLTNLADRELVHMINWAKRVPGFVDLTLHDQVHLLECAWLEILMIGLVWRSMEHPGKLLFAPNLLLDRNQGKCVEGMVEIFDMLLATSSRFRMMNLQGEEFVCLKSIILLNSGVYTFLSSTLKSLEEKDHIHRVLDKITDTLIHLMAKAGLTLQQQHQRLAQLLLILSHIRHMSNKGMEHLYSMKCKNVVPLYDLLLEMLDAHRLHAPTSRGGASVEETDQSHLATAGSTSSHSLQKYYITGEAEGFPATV
Test: PRα induction assay in MCF7 cells (ERα agonism)
Format: cell-based
Conditions: MCF7 breast cancer cells, 24 hours, up to 2 μM
Method: The purpose of the following PRα induction assay is to determine whether a test compound has agonistic activity against ERα receptor (an agonist would be expected to activate the receptor).
Culture MCF7 (purchased from ATCC HTB-22) in DMEM media supplemented with 10% FBS, 0.01 mg/mL human insulin 1 and 1% penicillin/streptomycin antibiotics and plate the cells (prior to becoming 70% confluent) in 384-well flat-bottom plates at a density of 4,000 cells per well in 20 μL volume in DMEM phenol red free media containing 10% FBS (charcoal stripped). Incubate the cells overnight in a cell culture incubator (5% CO2, 95% relative humidity at 37° C.) and allow the cells to attach to the plate. The following day dose the cells with test compound. Use an Echo 555 acoustic dispenser to prepare compound serial dilutions (1:3) in a range from 6 μM to 0.0003 μM. […]
The following day wash cells with PBS 0.05% TWEEN® 20 (2×20 μL) and incubate with secondary antibody (20 μL/well) (1:1000 dilution, Goat anti-rabbit IgM ALEXA FLUOR™ 488) in PBS 1% BSA for 105 minutes at room temperature. […] Scan plates with ACUMEN EXPLORER™ (Laser-scanning fluorescence microplate cytometer manufactured by TTP LABTECH LTD) to measure PRα. […]

SMILES | agonistic activity (PRα induction)
O=S(=O)(O)Oc1ccc2c3c(cnc2c1)-c1ccc(C(F)(F)F)cc1O[C@@H]3c1ccc(OCCN2CC(CF)C2)cc1 [Example 1, [(5R)-5-[4-[2-[3-(Fluoromethyl)azetidin-1-yl]ethoxy]phenyl]-8-(trifluoromethyl)-5H-chromeno[4,3-c]quinolin-2-yl]hydrogen sulfate] | no significant agonistic activity
O=C(O)[C@H]1O[C@@H](Oc2ccc3c4c(cnc3c2)-c2ccc(C(F)(F)F)cc2O[C@@H]4c2ccc(OCCN3CC(CF)C3)cc2)[C@H](O)[C@@H](O)[C@@H]1O [Example 2, (2S,3S,4S,5R,6S)-6-[[(5R)-5-[4-[2-[3-(Fluoromethyl)azetidin-1-yl]ethoxy]phenyl]-8-(trifluoromethyl)-5H-chromeno[4,3-c]quinolin-2-yl]oxy]-3,4,5-trihydroxy-tetrahydropyran-2-carboxylic acid] | no significant agonistic activity
